# Assay results published in the supplement of paper PMC11208160.
# Assay: recombinant UMI read abundance after kanamycin selection (control-corrected) (log10(CPM+1)); higher = more efficient recombination; extreme values may be limits of the assay; sequences stand for … in AGTGCAGAGAAAATCGGCCAGTTTTCTCTGCCTGCAGTCCGCATGCCGTGGGACCCCTTGGGTTCTAACCTGTTGCCTAGATTTATGCAGCGGACTGCCTTTCTCCCAAAGTGATAAACCGG…AGGTTGGTTTCACT; site = the 11-nt donor
# Method in brief: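 In Escherichia coli, a pool of donor and donor-binding-loop pairs, each with a 12-nt UMI, was tested for the IS621 bridge recombinase. Plating was on IPTG (0.07 mM) plus kanamycin, or without selection, in two replicates. Recombinant UMIs were amplified by PCR across the donor–target junction and sequenced, and counts were reported as log10(CPM+1) after averaging and control-derived scaling.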
# 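Note: IS621 bridge recombinase in Escherichia coli cells against a fixed T5 target plasmid.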
row,Sequence,recombinant UMI read abundance (log10)
1,GTTCAAGCATGGACCGGTTTTCCCGGTAATCCGTATTTGCA (site GTTCTAGCTTG),0
2,GTTCGAGCATGGACCGGTTTTCCCGGTAATCCGTATTTGAT (site GTTCGAGCTAT),1.75
3,GTTCGATCATGGACCGGTTTTCCCGGTAATCCGTATTTGCA (site GTTCGAACTTG),0
4,GTTCGATCATGGACCGGTTTTCCCGGTAATCCGTATTTGCA (site GTTCGACCTTG),0
5,GTTCGATCATGGACCGGTTTTCCCGGTAATCCGTATTTGCA (site GTTCGAGCTTG),0.00436
6,GTTCGATCATGGACCGGTTTTCCCGGTAATCCGTATTTGCA (site GTTCGATCTTG),2.08
7,GTTCTCCCATGGACCGGTTTTCCCGGTAATCCGTATTTGCG (site GTTCTCCCTCG),0.002
8,GTTGACACATGGACCGGTTTTCCCGGTAATCCGTATTTGAA (site GTTGACACTTT),0.918
9,GTTGACACATGGACCGGTTTTCCCGGTAATCCGTATTTGGG (site GTTGACACTCC),0.371
10,GTTGAGCCATGGACCGGTTTTCCCGGTAATCCGTATTTGTG (site GTTGAGCCTCA),0.033
11,GTTGAGGCATGGACCGGTTTTCCCGGTAATCCGTATTTGTG (site GTAGAGGCTCA),1.5
12,GTTGAGGCATGGACCGGTTTTCCCGGTAATCCGTATTTGTG (site GTCGAGGCTCA),0.879
13,GTTGAGGCATGGACCGGTTTTCCCGGTAATCCGTATTTGTG (site GTGGAGGCTCA),0.355
14,GTTGAGGCATGGACCGGTTTTCCCGGTAATCCGTATTTGTG (site GTTGAGGCTCA),1.07
15,GTTGATCCATGGACCGGTTTTCCCGGTAATCCGTATTTGGT (site GTTGATCCTAC),0.00442
16,GTTGATCCATGGACCGGTTTTCCCGGTAATCCGTATTTGGT (site GTTGCTCCTAC),0.0151
17,GTTGATCCATGGACCGGTTTTCCCGGTAATCCGTATTTGGT (site GTTGGTCCTAC),0.0158
18,GTTGATCCATGGACCGGTTTTCCCGGTAATCCGTATTTGGT (site GTTGTTCCTAC),0.011
19,GTTGCAACATGGACCGGTTTTCCCGGTAATCCGTATTTGCC (site GTTGCAACTGG),0

row,Sequence,recombinant UMI read abundance (log10)
1,GTTGCCTCATGGACCGGTTTTCCCGGTAATCCGTATTTGGA (site GTTGCCTCTTC),1.21
2,GTTGCTCCATGGACCGGTTTTCCCGGTAATCCGTATTTGGT (site GTTGATCCTAC),0
3,GTTGCTCCATGGACCGGTTTTCCCGGTAATCCGTATTTGGT (site GTTGCTCCTAC),0.00908
4,GTTGCTCCATGGACCGGTTTTCCCGGTAATCCGTATTTGGT (site GTTGGTCCTAC),0.0466
5,GTTGCTCCATGGACCGGTTTTCCCGGTAATCCGTATTTGGT (site GTTGTTCCTAC),0.0159
6,GTTGCTGCATGGACCGGTTTTCCCGGTAATCCGTATTTGGC (site GTTGCTGCTGC),0.902
7,GTTGGAACATGGACCGGTTTTCCCGGTAATCCGTATTTGGC (site GTTAGAACTGC),1.13
8,GTTGGAACATGGACCGGTTTTCCCGGTAATCCGTATTTGGC (site GTTCGAACTGC),0
9,GTTGGAACATGGACCGGTTTTCCCGGTAATCCGTATTTGGC (site GTTGGAACTGC),2.55
10,GTTGGAACATGGACCGGTTTTCCCGGTAATCCGTATTTGGC (site GTTTGAACTGC),0
11,GTTGGAGCATGGACCGGTTTTCCCGGTAATCCGTATTTGCA (site GTTAGAGCTTG),2.17
12,GTTGGAGCATGGACCGGTTTTCCCGGTAATCCGTATTTGCA (site GTTCGAGCTTG),0
13,GTTGGAGCATGGACCGGTTTTCCCGGTAATCCGTATTTGCA (site GTTGGAGCTTG),2.49
14,GTTGGAGCATGGACCGGTTTTCCCGGTAATCCGTATTTGCA (site GTTTGAGCTTG),0.659
15,GTTGGTCCATGGACCGGTTTTCCCGGTAATCCGTATTTGGT (site GTTGATCCTAC),0.0104
16,GTTGGTCCATGGACCGGTTTTCCCGGTAATCCGTATTTGGT (site GTTGCTCCTAC),0.00872
17,GTTGGTCCATGGACCGGTTTTCCCGGTAATCCGTATTTGGT (site GTTGGTCCTAC),0.0121
18,GTTGGTCCATGGACCGGTTTTCCCGGTAATCCGTATTTGGT (site GTTGTTCCTAC),0.00359
19,GTTGTTCCATGGACCGGTTTTCCCGGTAATCCGTATTTGGA (site GTTGTTCCTAC),0

row,Sequence,recombinant UMI read abundance (log10)
1,GTTGTTCCATGGACCGGTTTTCCCGGTAATCCGTATTTGGA (site GTTGTTCCTCC),0.00995
2,GTTGTTCCATGGACCGGTTTTCCCGGTAATCCGTATTTGGA (site GTTGTTCCTGC),0
3,GTTGTTCCATGGACCGGTTTTCCCGGTAATCCGTATTTGGA (site GTTGTTCCTTC),0.0132
4,GTTTAGCCATGGACCGGTTTTCCCGGTAATCCGTATTTGGC (site GTTTAGCCTGC),0
5,GTTTATCCATGGACCGGTTTTCCCGGTAATCCGTATTTGCT (site GATTATCCTAG),0
6,GTTTATCCATGGACCGGTTTTCCCGGTAATCCGTATTTGCT (site GCTTATCCTAG),0
7,GTTTATCCATGGACCGGTTTTCCCGGTAATCCGTATTTGCT (site GGTTATCCTAG),0
8,GTTTATCCATGGACCGGTTTTCCCGGTAATCCGTATTTGCT (site GTTTATCCTAG),0.492
9,GTTTCGGCATGGACCGGTTTTCCCGGTAATCCGTATTTGGG (site CGGGGCACTAA),0.0198
10,GTTTGAACATGGACCGGTTTTCCCGGTAATCCGTATTTGGC (site GTTAGAACTGC),0
11,GTTTGAACATGGACCGGTTTTCCCGGTAATCCGTATTTGGC (site GTTCGAACTGC),0
12,GTTTGAACATGGACCGGTTTTCCCGGTAATCCGTATTTGGC (site GTTGGAACTGC),0
13,GTTTGAACATGGACCGGTTTTCCCGGTAATCCGTATTTGGC (site GTTTGAACTGC),0
14,GTTTGCACATGGACCGGTTTTCCCGGTAATCCGTATTTGCA (site GTTTGCACTTG),0.292
15,GTTTGGACATGGACCGGTTTTCCCGGTAATCCGTATTTGGA (site GTTTGGACTTC),0.0184
16,TAAAACTCATGGACCGGTTTTCCCGGTAATCCGTATTTGGG (site TAAAACTCTCC),0.00919
17,TAAAATACATGGACCGGTTTTCCCGGTAATCCGTATTTGCA (site TAAAATACTTG),0
18,TAAAATACATGGACCGGTTTTCCCGGTAATCCGTATTTGCA (site TACAATACTTG),0.953
19,TAAAATACATGGACCGGTTTTCCCGGTAATCCGTATTTGCA (site TAGAATACTTG),0
